# Results: PMC10108740 (Journal of Medicinal Chemistry, 2023)
# Where two headings read alike, the source gives them in different places.
# What was measured:
# [1] = system: SARS-CoV-2 BA.1 (Omicron); assay: microbe, parasite or virus in culture; format: cell-based; details: Severe acute respiratory syndrome coronavirus 2, Calu-3
# SARS-CoV-2 P.1 (Gamma) = assay: microbe, parasite or virus in culture; format: cell-based; details: Severe acute respiratory syndrome coronavirus 2, Calu-3
# [2] = system: SARS-CoV-2 B.1.617.2 (Delta); assay: microbe, parasite or virus in culture; format: cell-based; details: Severe acute respiratory syndrome coronavirus 2, Calu-3
# SARS-CoV-2 (WA-1) [3] = assay: Antiviral immunofluorescence assay, SARS-CoV-2 WA1 in Vero-TMPRSS2 cells; format: cell-based
# SARS-CoV-2 (WA-1) [4] = assay: Antiviral immunofluorescence assay, SARS-CoV-2 WA1 in Huh7.5 cells; format: cell-based; details: Severe acute respiratory syndrome coronavirus 2, WA-1, Huh7.5 cells, immunofluorescence, 48 hpi
# Calu-3 cells = details: human, 44 h
# SARS-CoV-2 (WA-1) [5] = system: SARS-CoV-2 (WA-1); parameters: method as in PMID 34310217; details: Huh7.5 cells; read-out: EC50, inhibition of SARS-CoV-2 replication; cited from earlier work
# [6] = hamster, in vivo; cited from earlier work
# [7] = system: SARS-CoV-2 B.1.351 (Beta); assay: microbe, parasite or virus in culture; format: cell-based; details: Severe acute respiratory syndrome coronavirus 2, Calu-3
# SARS-CoV-2 (WA-1) [8] = assay: Antiviral immunofluorescence assay, SARS-CoV-2 WA1 in human pluripotent stem cell-derived lung cells; format: cell-based; details: Severe acute respiratory syndrome coronavirus 2, WA-1, PSC-lung cells (ALDA 31616 and H9), 24 hpi
# in vitro [9] = details: human
# in vitro [10] = details: chlorocebus aethiops
# Method: Cells were seeded as per SARS-CoV-2 infection studies in opaque walled 96-well cell culture plates and incubated overnight for Huh7.5 and Vero-TMPRSS2 cells and for an additional 24h for Calu-3 cells. Compounds or controls were added at the indicated concentrations. Cells were incubated for 48h for Huh7.5 cells, 40–44h for Calu-3 cells, or 30–32h for Vero-TMPRSS2 cells at 37 °C and 5% CO2, an equal volume of CellTiter-Glo reagent (Cat. #G7570, Promega) or CellTiter-Glo 2.0 reagent (Cat. #G9241, Promega) was added and mixed, and luminescence was recorded on a Veritas Microplate Luminometer (Turner BioSystems) according to manufacturer recommendations. Percent viability was calculated compared to DMSO controls, and CC50 values were calculated using Prism 9.
# Calu-3 cells were treated for 44h (A), Huh7.5 cells were treated for 48h (B), and Vero-
# TMPRSS2 cells were treated for 38h (C) as in infection assays for each cell type. Cell viability
# was measured by CellTiter-Glo assay and reported as % cell viability relative to DMSO controls.
# Best fit curves calculated in Graphpad Prism 9 were used
# to compute cytotoxic concentration 50% (CC50) values in Tables 1-3.
# [11] = system: SARS-CoV-2 B.1.1.7 (Alpha); assay: microbe, parasite or virus in culture; format: cell-based; details: Severe acute respiratory syndrome coronavirus 2, Calu-3
# [12] = system: SARS-CoV-2 WA1 (USA-WA1/2020); assay: Antiviral immunofluorescence assay, SARS-CoV-2 WA1 in Calu-3 cells; format: cell-based; details: immunofluorescence, 44 hpi, mean ± SD
# in vitro [13] = details: human; remark: listed apart in the source
compound,measurement,setting,value
"CCCCCCCCCCCCCCCCCCOC[C@H](COP(=O)(O)OC[C@H]1O[C@@](C#N)(c2ccc3c(N)ncnn23)[C@H](O)[C@@H]1O)OCc1ccccc1 [Compound V2043, 1-O-octadecyl-2-O-benzyl-sn-glyceryl-phospho-RVn]",EC50,[1],44 ± 12 nM
same,EC90,[1],359 ± 447 nM
same,EC50,SARS-CoV-2 P.1 (Gamma),167 ± 84 nM
same,EC90,SARS-CoV-2 P.1 (Gamma),362 ± 42 nM
same,EC50,[2],85 ± 24 nM
same,EC90,[2],484 ± 457 nM
same,EC50,"SARS-CoV-2 (WA-1) [3]; Severe acute respiratory syndrome coronavirus 2, Vero/TMPRSS2",216 ± 38 nM
same,EC90,"SARS-CoV-2 (WA-1) [3]; Severe acute respiratory syndrome coronavirus 2, WA-1, Vero-TMPRSS2 cells, immunofluorescence, 38 hpi",403 ± 128 nM
same,EC50,SARS-CoV-2 (WA-1) [4]; read-out: EC50,140 ± 63 nM
same,EC90,SARS-CoV-2 (WA-1) [4]; read-out: EC90,424 ± 267 nM
same,CC50,Calu-3 cells,58300 nM
same,EC50,SARS-CoV-2 (WA-1) [5],138 nM
same,oral bioavailability,[6],orally bioavailable
same,EC50,[7],146 ± 104 nM
same,EC90,[7],645 ± 459 nM
same,EC50,SARS-CoV-2 (WA-1) [8],382 ± 205 nM
same,EC90,SARS-CoV-2 (WA-1) [8],736 ± 267 nM
same,CC50 at 44 h,in vitro [9],58300 nM
same,CC50 at 38 h,in vitro [10],97900 nM
same,EC50,[11],146 ± 95 nM
same,EC90,[11],517 ± 169 nM
same,EC50,"[12]; Severe acute respiratory syndrome coronavirus 2, Calu-3, WA1, Calu-3 cells",138 nM
same,EC90,"[12]; Severe acute respiratory syndrome coronavirus 2, WA1, Calu-3 cells",323 ± 157 nM
same,EC50,"[12]; WA1, Calu-3 cells, read-out: EC50",136 ± 56 nM
same,CC50 at 24 h,in vitro [13],> 20000 nM
